Reference: the supplement of paper PMC11451515

Test system: NOMO1
Assay: cell viability relative to DMSO control; higher = less cytotoxic
Conditions: 48 h
Method in brief: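 Viability values are per-plate percentages of DMSO wells, with background from cell-free wells. Library compounds in DMSO were pin-dosed, in an 11-point threefold series from 47 μM to 0.79 nM, onto NOMO1 or SEM (500 cells/well) or P12-Ichikawa (1000 cells/well) leukemia cells in 1536-well plates (5 μl). Those cells had been adapted for at least four passages in each medium, and CellTiter-Glo One luminescence was read after 48 h at 37°C.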

[1] = HPLM + 10% dialyzed FBS, 0.000781 µM
[2] = HPLM + 10% dialyzed FBS, 0.00234 µM
[3] = HPLM + 10% dialyzed FBS, 0.00702 µM
[4] = HPLM + 10% dialyzed FBS, 0.0211 µM
[5] = HPLM + 10% dialyzed FBS, 0.0632 µM
[6] = HPLM + 10% dialyzed FBS, 0.19 µM
[7] = HPLM + 10% dialyzed FBS, 0.569 µM
[8] = HPLM + 10% dialyzed FBS, 1.71 µM
[9] = HPLM + 10% dialyzed FBS, 5.12 µM
[10] = HPLM + 10% dialyzed FBS, 15.4 µM
[11] = HPLM + 10% dialyzed FBS, 46.1 µM
[12] = RPMI 5 mM glucose + 10% FBS, 0.000781 µM
[13] = RPMI 5 mM glucose + 10% FBS, 0.00234 µM
[14] = RPMI 5 mM glucose + 10% FBS, 0.00702 µM
[15] = RPMI 5 mM glucose + 10% FBS, 0.0211 µM
[16] = RPMI 5 mM glucose + 10% FBS, 0.0632 µM
[17] = RPMI 5 mM glucose + 10% FBS, 0.19 µM
[18] = RPMI 5 mM glucose + 10% FBS, 0.569 µM
[19] = RPMI 5 mM glucose + 10% FBS, 1.71 µM
[20] = RPMI 5 mM glucose + 10% FBS, 5.12 µM
[21] = RPMI 5 mM glucose + 10% FBS, 15.4 µM
[22] = RPMI 5 mM glucose + 10% FBS, 46.1 µM
[23] = RPMI 5 mM glucose + 10% dialyzed FBS, 0.000781 µM
[24] = RPMI 5 mM glucose + 10% dialyzed FBS, 0.00234 µM
[25] = RPMI 5 mM glucose + 10% dialyzed FBS, 0.00702 µM
[26] = RPMI 5 mM glucose + 10% dialyzed FBS, 0.0211 µM
[27] = RPMI 5 mM glucose + 10% dialyzed FBS, 0.0632 µM
[28] = RPMI 5 mM glucose + 10% dialyzed FBS, 0.19 µM
[29] = RPMI 5 mM glucose + 10% dialyzed FBS, 0.569 µM
[30] = RPMI 5 mM glucose + 10% dialyzed FBS, 1.71 µM
[31] = RPMI 5 mM glucose + 10% dialyzed FBS, 5.12 µM
[32] = RPMI 5 mM glucose + 10% dialyzed FBS, 15.4 µM
[33] = RPMI 5 mM glucose + 10% dialyzed FBS, 46.1 µM

Row | Structure (SMILES) | cell viability [1] [%] | cell viability [2] [%] | cell viability [3] [%] | cell viability [4] [%] | cell viability [5] [%] | cell viability [6] [%] | cell viability [7] [%] | cell viability [8] [%] | cell viability [9] [%] | cell viability [10] [%] | cell viability [11] [%] | cell viability [12] [%] | cell viability [13] [%] | cell viability [14] [%] | cell viability [15] [%] | cell viability [16] [%] | cell viability [17] [%] | cell viability [18] [%] | cell viability [19] [%] | cell viability [20] [%] | cell viability [21] [%] | cell viability [22] [%] | cell viability [23] [%] | cell viability [24] [%] | cell viability [25] [%] | cell viability [26] [%] | cell viability [27] [%] | cell viability [28] [%] | cell viability [29] [%] | cell viability [30] [%] | cell viability [31] [%] | cell viability [32] [%] | cell viability [33] [%]
1 | CCCCC(C=O)NC(=O)C(CC(C)C)NC(=O)OCc1ccccc1 (stereo not drawn) | 104 | 98.5 | 86.4 | 94.7 | 85.5 | 83 | 92.2 | 82.7 | 89.4 | 82 | 55.9 | 91.8 | 93.3 | 90.1 | 102 | 93.7 | 88.9 | 85.4 | 72.7 | 80.2 | 68.6 | 77.6 | 103 | 93.3 | 95.1 | 97.4 | 101 | 83.9 | 90.4 | 82.2 | 77.6 | 80.9 | 70.1
2 | CN1CCC[C@@H]1CCO[C@](C)(c1ccccc1)c1ccc(Cl)cc1 | 96 | 112 | 95.7 | 102 | 112 | 109 | 119 | 107 | 110 | 112 | 95.2 | 100 | 105 | 101 | 110 | 107 | 105 | 100 | 109 | 114 | 115 | 103 | 93.3 | 112 | 105 | 97.2 | 117 | 108 | 104 | 102 | 104 | 112 | 87.8
3 | COc1cc2nc(-c3cc(F)ccc3O)nc(N[C@@H]3CNC[C@H]3C(C)(C)O)c2cc1OC | 111 | 115 | 108 | 128 | 93.5 | 122 | 124 | 109 | 109 | 89.4 | 38.4 | 107 | 105 | 108 | 103 | 101 | 115 | 109 | 122 | 114 | 106 | 49.4 | 101 | 97.8 | 100 | 118 | 106 | 112 | 112 | 96.6 | 99.6 | 88.4 | 53.7
4 | CC[C@H](NC(=O)[C@H](C)NC)C(=O)N1C[C@@H](O)C[C@H]1Cc1c(-c2[nH]c3cc(F)ccc3c2C[C@@H]2C[C@H](O)CN2C(=O)[C@H](CC)NC(=O)[C@H](C)NC)[nH]c2cc(F)ccc12 | 113 | 112 | 123 | 114 | 126 | 110 | 89.9 | 67.3 | 22.6 | 20.3 | 21.8 |  |  |  |  |  |  |  |  |  |  |  | 113 | 122 | 145 | 150 | 150 | 128 | 115 | 106 | 17.3 | 16.2 | 12.5
5 | C/C(O)=C(\C#N)C(=O)Nc1cc(Br)ccc1Br | 111 | 119 | 98.3 | 115 | 88.3 | 104 | 98.3 | 96.6 | 98.8 | 90.7 | 78.3 | 96.4 | 93.7 | 94.6 | 99.2 | 94 | 92.5 | 96.2 | 90 | 83 | 88 | 82.3 | 95.3 | 96 | 102 | 102 | 94.1 | 102 | 90 | 83.4 | 82.5 | 93.3 | 78
6 | CC[C@]12\C=C/CN3CC[C@]4([C@@H](N(C)C5=CC(=C(C=C45)[C@]6(C[C@H]7C[C@H](CN(C7)CC8=C6[NH]C9=C8C=CC=C9)C(C)(F)F)C(=O)OC)OC)[C@](O)([C@@H]1OC(C)=O)C(=O)OC)[C@H]23 | 102 | 102 | 97.5 | 72.8 | 28.2 | 28.1 | 36 | 38.6 | 36.8 | 36.1 | 28.7 | 95 | 96.9 | 91.9 | 85.2 | 24.5 | 18.5 | 21.6 | 22.3 | 22.3 | 23.7 | 20.1 | 91.5 | 92.4 | 91.6 | 93.7 | 57.5 | 30.6 | 24.2 | 26.3 | 27.5 | 26.8 | 20.8
7 | COC1=CC=C(C=C1O)C/2=C/C(=O)C3=C(O2)C=C(O)C=C3O | 93.3 | 108 | 108 | 108 | 114 | 100 | 95.3 | 98.4 | 94.4 | 93.9 | 110 | 96.4 | 86 | 82.8 | 87.4 | 94.5 | 93.7 | 96.8 | 88.2 | 95 | 105 | 102 | 91.3 | 90.5 | 85.5 | 100 | 105 | 89.8 | 83.6 | 89.5 | 82.5 | 92.5 | 98.2
8 | CC1(N2CCC(n3c([C@@H]4CCCNC4)nc4ccccc43)CC2)CCCCCCC1 | 77.1 | 100 | 112 | 111 | 127 | 116 | 116 | 101 | 94 | 45.4 | 7.21 | 93.6 | 103 | 102 | 112 | 108 | 124 | 112 | 120 | 109 | 97.7 | 53.5 | 91 | 108 | 122 | 115 | 121 | 104 | 130 | 134 | 98.4 | 69.4 | 17.8
9 | COC1=CC=CC(=C1N)\C2=C\C(=O)C3=C(O2)C=CC=C3 |  |  |  |  |  |  |  |  |  |  |  | 120 | 121 | 119 | 117 | 143 | 125 | 143 | 124 | 126 | 121 | 116 |  |  |  |  |  |  |  |  |  |  | 
10 | O=C(c1ccc(F)c(F)c1Nc1ccc(I)cc1F)N1CC(O)([C@@H]2CCCCN2)C1 | 96.3 | 91.9 | 97.4 | 108 | 90.9 | 70.1 | 56.4 | 41.8 | 15.1 | 13.3 | 14.3 | 91.4 | 99.9 | 98.2 | 93.4 | 92.5 | 74.1 | 61.8 | 29.1 | 8.07 | 7.33 | 5.28 | 89.4 | 99 | 93.9 | 102 | 100 | 69.7 | 58.6 | 44.1 | 10.1 | 10.2 | 11.6
11 | COc1ccc(C2Sc3ccccc3N(CCN(C)C)C(=O)C2OC(C)=O)cc1 (stereo not drawn) | 118 | 114 | 124 | 114 | 112 | 114 | 113 | 120 | 119 | 110 | 89.2 | 97.3 | 108 | 105 | 96.9 | 100 | 108 | 99 | 102 | 100 | 95.4 | 94.8 | 115 | 104 | 112 | 107 | 113 | 111 | 115 | 109 | 100 | 98.7 | 85.2
12 | ClC1=CC\2=C(NC(=O)\C(=C2N[C@@H]3CN4CCC3CC4)C5=NC6=C([NH]5)C=CC=C6)C=C1 | 121 | 123 | 121 | 123 | 129 | 49.3 | 36.5 | 35.6 | 32.3 | 28.4 | 17.3 | 113 | 120 | 123 | 110 | 103 | 46.4 | 23.4 | 17.5 | 18 | 12.4 | 13.4 | 101 | 105 | 113 | 108 | 117 | 44 | 23.7 | 20.4 | 25.2 | 18.6 | 18.2
13 | CN[C@@H]1Cc2cccc3[nH]c(=O)n(c23)C1 |  |  |  |  |  |  |  |  |  |  |  | 112 | 113 | 118 | 110 | 107 | 105 | 108 | 106 | 105 | 102 | 103 |  |  |  |  |  |  |  |  |  |  | 
14 | O=C(O)/C=C/c1ccc(O)c(O)c1 | 104 | 125 | 104 | 107 | 127 | 124 | 118 | 118 | 104 | 94.7 | 67 | 124 | 100 | 109 | 107 | 97.9 | 98.9 | 92.5 | 111 | 101 | 92.2 | 25.2 | 105 | 118 | 106 | 102 | 106 | 115 | 107 | 112 | 101 | 105 | 47.9
15 | CC[C@@]1(O)C(=O)OC\C2=C1\C=C\3N(CC4=C3N=C5C=CC=CC5=C4)C2=O | 122 | 115 | 145 | 120 | 80.4 | 30.3 | 30.7 | 28.6 | 21.1 | 14.9 | 25.7 | 117 | 106 | 120 | 106 | 77.5 | 22.3 | 20.8 | 20.4 | 11.9 | 16.7 | 17.9 | 126 | 110 | 121 | 103 | 76.5 | 28.9 | 28.6 | 27.5 | 21.9 | 22.4 | 14
16 | Nc1nnc(-c2cccc(Cl)c2Cl)c(N)n1 | 95.9 | 89.7 | 97.6 | 33 | 107 | 113 | 112 | 98.9 | 121 | 108 | 115 | 89.2 | 86.6 | 93.5 | 23.7 | 112 | 96.5 | 88.4 | 96.1 | 102 | 95.2 | 102 | 76 | 89.2 | 94 | 43.7 | 96.2 | 93.1 | 99 | 108 | 103 | 98.6 | 99.1
